Data: patent US20060253078A1, “Method of treating skin disorders with stratum corneum piercing device” (priority 2005, published 2006)

Experiment: In vitro electrode-salicylic acid compatibility (color change of test solution)
Type: physicochemical
Details: for Solution color change: 1.5% salicylic acid in 50% ethanol/50% water, cathode Platinum
Protocol: The following experiment was conducted to determine the compatibility of electrodes with salicylic acid. A pair of test electrodes was immersed in 5 ml of 1.5% salicylic acid solution (solvent 50% ethanol/50% water). A pre-determined voltage was applied to the electrodes (by connecting the electrodes to a battery or batteries) for certain length of time as indicated in Table 3. Observations were made on color change of the test solution.

For `O=C(O)c1ccccc1O` [salicylic acid], the Solution color change (anode Platinum, 3 V, 10 min) was “Colorless → yellow”, the Solution color change (anode Platinum, 9 V, 10 min) was “Colorless → brown” and the Solution color change (anode Zinc, 1.5 V, 10 min) was “No color change”. For the same compound, the Solution color change (anode Zinc, 3 V, 10 min) was “No color change”, the Solution color change (anode Zinc, 9 V, 30 min) was “No color change” and the “Discoloration of the solution (compatibility with salicylic acid)” value (platinum anode) was “resulted in discoloration”. For the same compound, the “Discoloration of the solution (compatibility with salicylic acid)” value (zinc anode, during passage of electric current) was “no discoloration”.
